Broadly, the EC50 is the concentration that produces a half-maximal response.

The values below come from US20240025912A1 (Merck Sharp & Dohme LLC, priority 2022, published 2024).

This assay has as its target GST-RIPK1 (recombinant GST-RIPK1 kinase domain (residues 1-327)) (Homo sapiens (Human), UniProt Q13546). The assay is described as follows: RIPK1-ADP-Glo Enzymatic Assay. In kind it is biochemical. Conditions: 25 nM GST-RIPK1, 300 μM ATP, 3 μM dephosphorylated-MBP, 30 min pre-incubation, 150 min reaction. A digest of the protocol:
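GST-RIPK1 kinase domain (1-327, Sf21-expressed), 25 nM final, pre-incubated 30 min with compound (1% DMSO), then reacted 150 min with 300 μM ATP and 3 μM dephosphorylated MBP in HEPES pH 7.3/MgCl2 buffer. ADP measured by ADP-Glo luminescence; EC50 from 10-point 1:3 titrations (top 100000 nM), four-parameter fit.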
Background: In ADP-Glo the light output rises with the ADP produced.

Chain of GST-RIPK1 (recombinant GST-RIPK1 kinase domain (residues 1-327)) (Q13546 1-327): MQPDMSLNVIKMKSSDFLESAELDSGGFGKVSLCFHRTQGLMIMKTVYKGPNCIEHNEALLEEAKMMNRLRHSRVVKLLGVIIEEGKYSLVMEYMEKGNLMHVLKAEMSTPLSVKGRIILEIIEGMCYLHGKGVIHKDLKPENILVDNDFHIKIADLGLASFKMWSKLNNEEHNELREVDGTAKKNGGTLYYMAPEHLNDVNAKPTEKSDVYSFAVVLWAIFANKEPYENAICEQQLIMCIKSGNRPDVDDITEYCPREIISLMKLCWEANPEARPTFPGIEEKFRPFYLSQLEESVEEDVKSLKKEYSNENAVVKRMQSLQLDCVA

Regarding `O=c1n(C23CC(F)(C2)C3)nc2n1[C@H](c1cnccn1)C[C@@H]2F` [Compound 4-17, (5S,7S)-7-fluoro-2-(3-fluorobicyclo[1.1.1]pentan-1-yl)-5-(pyrazin-2-yl)-2,5,6,7-tetrahydro-3H-pyrrolo[2,1-c][1,2,4]triazol-3-one], the EC50 was 38.8 nM. Turning to `O=c1n(C23CC(F)(C2)C3)nc2n1[C@H](c1cc(F)cc(F)c1)C[C@H]2O` [Compound 5-1, (5S,7R)-5-(3,5-difluorophenyl)-2-(3-fluorobicyclo[1.1.1]pentan-1-yl)-7-hydroxy-2,5,6,7-tetrahydro-3H-pyrrolo[2,1-c][1,2,4]triazol-3-one], the EC50 is 78.3 nM.

For the molecule `O=c1n(C23CC(F)(C2)C3)nc2n1[C@H](c1cc(F)cc(F)c1)C[C@@H]2O` [Compound 5-2, (5S,7S)-5-(3,5-difluorophenyl)-2-(3-fluorobicyclo[1.1.1]pentan-1-yl)-7-hydroxy-2,5,6,7-tetrahydro-3H-pyrrolo[2,1-c][1,2,4]triazol-3-one], the EC50 was found to be 25.7 nM. The value for `N#CC12CC(n3nc4n(c3=O)[C@H](c3ccc(C(F)F)cc3)CC4)(C1)C2` [Compound 7-1, (S)-3-(5-(4-(difluoromethyl)phenyl)-3-oxo-6,7-dihydro-3H-pyrrolo[2,1-c][1,2,4]triazol-2(5H)-yl)bicyclo[1.1.1]pentane-1-carbonitrile] was 90.2 nM.
